This is an account of results in patent publication US6632829B2, “Sulfonamides and derivatives thereof that modulate the activity of endothelin” (Texas Biotechnology Corp., priority 1996, dated 2003).

The structures appear in SMILES notation.

The target in the test is T1, human ETA receptors (Homo sapiens, UniProt P25101).
T1 construct: endogenous in cells; host or cells: TE 671 cells (ATCC HTB 139), membrane preparation
T1 sequence (P25101 21-427): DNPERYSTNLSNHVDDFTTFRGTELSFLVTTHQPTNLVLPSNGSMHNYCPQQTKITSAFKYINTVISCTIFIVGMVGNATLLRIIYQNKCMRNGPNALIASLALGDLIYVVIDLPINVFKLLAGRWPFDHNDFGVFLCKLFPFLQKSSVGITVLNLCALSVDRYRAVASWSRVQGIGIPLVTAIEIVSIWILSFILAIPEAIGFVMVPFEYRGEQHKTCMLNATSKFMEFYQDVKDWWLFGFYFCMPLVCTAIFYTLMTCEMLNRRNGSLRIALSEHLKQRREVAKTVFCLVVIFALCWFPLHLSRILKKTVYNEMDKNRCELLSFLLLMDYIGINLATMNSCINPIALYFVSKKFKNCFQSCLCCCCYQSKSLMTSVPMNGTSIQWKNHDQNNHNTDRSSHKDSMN
Nature of the test: Endothelin binding inhibition, Binding Test #1: competition with 125I-ET-1 for ETA receptors on TE 671 cell membranes. Conditions: incubation at 24° C. (values marked †).

As to `Cc1cc(C)c(NC(=O)c2sccc2S(=O)(=O)Nc2onc(C)c2Cl)c(C)c1O` [N-(4-chloro-3-methyl-5-isoxazolyl)-2-(3-hydroxy-2,4,6-trimethylphenylaminocarbonyl)thiophene-3-sulfonamide], the IC50 (commonly the concentration needed to halve the response being measured) was determined as 1.71 nM.
